Experimental data from patent US20230230698A1, “ANTIMICROBIAL CHOICE ALGORITHM FOR URINARY TRACT INFECTIONS” (Northwestern University, priority 2020, published 2023).
Read-outs that look alike come from different tables or passages of the source.

Columns and labels:
uropathogen [1] = assay: Urine culture antimicrobial susceptibility (Vitek 2), outpatients with complicated UTI; assay type: cell-based; details: for Overall prevalence of resistance: complicated UTI outpatients, 2012-2018, 2,286 cultures (>=10^3 CFU/mL), resistant or intermediate susceptibility; for proportion of patients resistant: complicated UTI, 2017-2018 testing cohort, 646 patients, Chicago ZIP code
Text: Materials and Methods: We performed a retrospective, single-center, cross-sectional study of 2,286 outpatients with a diagnosed complicated UTI from 2012-2018. For patients with confirmed UTI (≥10^3 CFU/mL) with antimicrobial sensitivities, univariate analyses and multivariable regression models were used to determine odds ratios for predicting resistance to SXT, NIT, CIP, CF-1, and CF-3 for the 2012-2016 data. Antimicrobial choice algorithms were created using 2012-2016 results and tested on 2017-2018 data.
This study was approved and performed in accordance with the Northwestern Medicine Institutional Review Board (STU00207763). This is a retrospective cross-sectional study of patients aged 18 or older that submitted urine cultures as outpatients from 2012 to 2018 at any Northwestern Medicine site, which encompasses the greater Chicago area. Data were obtained from the Northwestern Medicine Enterprise Data Warehouse, which is a data integration warehouse designed for research and clinical operations. […] Patients and cultures were included only if they were linked to any ICD 9 or 10 diagnosis code in the previous two years that would have been associated with a complicated UTI^6. Patients were included exactly once based on their most recent culture, and all prior culture data were used as covariates. […] Cultures were included in analysis if positive (identified uropathogen≥10^3 colony forming units per milliliter (CFU/mL)) and antimicrobial susceptibilities were reported for the dominant species. All specimen collection and testing were done uniformly in accordance with Northwestern Medicine Guidelines. Isolation, colony count and identification testing were performed using Vitek 2 cards (bioMérieux).
For the 2012 to 2016 patients, outcomes of interest were uropathogen resistance (defined as resistant or intermediate susceptibility) to trimethoprim-sulfamethoxazole (SXT), ciprofloxacin (CIP), nitrofurantoin (NIT), first-generation cephalosporin (CF-1) and third-generation cephalosporin (CF-3). The resistance prevalence was also stratified by Chicago ZIP code for each antimicrobial.
The algorithms developed using the above-described cohort were then tested on the 2017-2018 cohort. […] Also, the predictive value of time between cultures and uropathogen concurrence between cultures was examined in this cohort^10,17. All analyses were done using R (version 3.5.2).

uropathogen [2] = assay: Urine culture antimicrobial susceptibility (Vitek 2), women outpatients with uncomplicated UTI; assay type: cell-based; details: for proportion with culture susceptible, theoretical scenario of all patients receiving the drug / proportion with culture susceptible if everyone was prescribed the drug: 2018 cohort; for proportion with culture susceptible, theoretical scenario of all patients receiving the drug: 258 patients with prior microbiologic data; for proportion with culture susceptible, theoretical scenario of all patients being prescribed the drug: 2018 cohort, 1,169 patients without prior microbiologic data; for proportion with culture susceptible if everyone was prescribed the drug: all 1,427 patients; for Overall prevalence of resistance / proportion of patients resistant: uncomplicated UTI; for Overall prevalence of resistance: 2011-2017 cohort, 9,455 positive cultures (>=10^3 CFU/mL), resistant or intermediate susceptibility; for proportion of patients resistant: 2018 testing cohort, 1,427 women, Chicago ZIP code
Text: Data were obtained from the Northwestern Medicine Enterprise Data Warehouse, which is a data integration warehouse designed for research and clinical operations. […] Cultures were included in analysis if positive (identified uropathogen≥10^3 colony forming units per milliliter (CFU/mL)) and antimicrobial susceptibilities reported for the dominant species. The colony count cutoff of ≥10^3 CFU/mL was used as it has been noted that low thresholds have appropriate diagnostic value for women with symptoms of a UTI.^5, 17, 18 The Northwestern Medicine Institutional Review Board approved this study (STU00207763).
All specimen collection and testing were done uniformly in accordance with Northwestern Medicine Guidelines. Isolation, colony count and identification testing were performed using Vitek 2 cards (bioMérieux).
For the 2011-2017 patients, outcomes of interest were uropathogen resistance (defined as resistant or intermediate susceptibility) to SXT, NIT and CIP. Covariates were patient demographics (age, race and patient's place of residence (ZIP code)) antimicrobial prescriptions within the past two years, diagnosis codes associated with current and past encounters, past urine culture results and department to which they presented. Risk factors were compared between patients who had resistant and sensitive cultures using two-sample t-tests (continuous variables) and chi-squared tests (categorical variables). Multivariate logistic regression models were used to investigate the association between risk factors and resistant cultures. Odds ratios (OR) were derived from these models to determine the probability of having a resistant culture with those factors.
The algorithms developed using the above-described cohort were then tested on the 2018 cohort. […] All analyses were done using R (version 3.5.2).

uropathogen [3] = assay: Resistance in community acquired UTIs, uncomplicated and complicated combined; assay type: cell-based; details: 2018
Text: The prevalence of resistance for patients with complicated UTIs was compared to data from our previous publication for uncomplicated UTIs and available hospital data^17. The prevalence of resistance by ZIP code for the complicated UTI population was then compared between each antibiotic and to the distribution of prevalence by ZIP code for the uncomplicated population for the previous study, for CIP, SXT and NIT (the three antimicrobials evaluated in the previous study)^17.

uropathogen [4] = details: 2018, both inpatient and outpatient cultures; cited from earlier work

| Compound | Overall prevalence of resistance (uropathogen [1]) | proportion of patients resistant (uropathogen [1]) | proportion with culture susceptible, theoretical scenario of all patients receiving the drug (uropathogen [2]) | proportion with culture susceptible, theoretical scenario of all patients being prescribed the drug (uropathogen [2]) | proportion with culture susceptible if everyone was prescribed the drug (uropathogen [2]) | Overall prevalence of resistance (uropathogen [2]) | proportion of patients resistant (uropathogen [2]) | resistance, complicated UTI (uropathogen [1]; 2018, community acquired) | resistance for community acquired UTIs, both uncomplicated and complicated (uropathogen [3]) | Overall prevalence of resistance (uropathogen [4]) |
| --- | --- | --- | --- | --- | --- | --- | --- | --- | --- | --- |
| O=C1CN(/N=C/c2ccc([N+](=O)[O-])o2)C(=O)N1 [NIT, nitrofurantoin] | 18.9% | 18.1% | 93.8% | 89.2% | 90.0% | 12.1% | 10.0% | – | – | – |
| O=C(O)c1cn(C2CC2)c2cc(N3CCNCC3)c(F)cc2c1=O [CIP, ciprofloxacin] | 19.4% | 18.4% | – | – | – | 10.3% | 10.7% | 16.2% | 11.2% | 25% |
| trimethoprim-sulfamethoxazole [SXT] | 25.5% | 25.9% | 72.1% | 79.3% | 78.0% | 19.4% | 22.0% | – | – | – |
